Measurements from ChEMBL document CHEMBL1201862, “PubChem BioAssay data set” (2004).
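Cells were grown in 96-well plates and exposed to each compound for 48 hours at five concentrations; endpoints were interpolated linearly between bracketing concentrations, or set to the highest concentration if not reached. The concentration for 50% growth inhibition is given as GI50.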 Activity calls are given as the source filed them. No stated cut-off is given here; in the data, active = GI50 up to about 1.1 µM and inactive = higher.

Legend:
Experiment in all cases: DTP human tumour cell line panel, 48 h
A549 = tested on: A549
CAKI-1 = tested on: CAKI-1
COLO 205 = tested on: COLO 205
HCC 2998 = tested on: HCC 2998
HOP-62 = tested on: HOP-62
HOP-92 = tested on: HOP-92
IGROV-1 = tested on: IGROV-1
KM12 = tested on: KM12
LOX IMVI = tested on: LOX IMVI
M14 = tested on: M14
NCI-H226 = tested on: NCI-H226
OVCAR-3 = tested on: OVCAR-3
SK-MEL-28 = tested on: SK-MEL-28
SK-MEL-2 = tested on: SK-MEL-2
SK-OV-3 = tested on: SK-OV-3
SNB-19 = tested on: SNB-19
U-251 = tested on: U-251

Measured: GI50

CCc1ccccc1NC(=O)C(=O)CC(=O)c1sc(Nc2ccccc2)nc1C
inactive: A549 > 100 µM | CAKI-1 85.9 µM | COLO 205 > 100 µM | HCC 2998 > 100 µM | HOP-62 > 100 µM | HOP-92 > 100 µM | IGROV-1 > 100 µM | KM12 > 100 µM | LOX IMVI > 100 µM | M14 > 100 µM | NCI-H226 > 100 µM | OVCAR-3 80.5 µM | SK-MEL-28 > 100 µM | SK-MEL-2 > 100 µM | SK-OV-3 > 100 µM | SNB-19 > 100 µM | U-251 > 100 µM

Cc1ccccc1NC(=O)CC(=O)n1nc(-c2ccccc2)c(/N=N/c2ccc([N+](=O)[O-])cc2)c1-c1ccccc1
inactive: A549 16.1 µM | CAKI-1 5.87 µM | COLO 205 16.8 µM | HCC 2998 17.9 µM | HOP-62 16 µM | HOP-92 11.4 µM | IGROV-1 28.1 µM | KM12 16.7 µM | LOX IMVI 20.6 µM | M14 16.7 µM | NCI-H226 14.1 µM | OVCAR-3 15.7 µM | SK-MEL-28 27.3 µM | SK-MEL-2 25.3 µM | SK-OV-3 16.7 µM | SNB-19 25.6 µM | U-251 14.1 µM

CC(C)C1COC(c2cccc(C3=N[C@@H](C(C)C)CO3)n2)=N1 (some centres not stated)
inactive: A549 > 100 µM | CAKI-1 > 100 µM | COLO 205 > 100 µM | HCC 2998 > 100 µM | HOP-62 > 100 µM | HOP-92 > 100 µM | IGROV-1 > 100 µM | KM12 > 100 µM | LOX IMVI > 100 µM | M14 > 100 µM | NCI-H226 > 100 µM | OVCAR-3 > 100 µM | SK-MEL-28 > 100 µM | SK-MEL-2 > 100 µM | SK-OV-3 > 100 µM | SNB-19 > 100 µM | U-251 59.3 µM

[N-]=[N+]=NC(c1cn(C2CC(O)C(CO)O2)c(=O)[nH]c1=O)C(Cl)Br (configuration not stated)
inactive: A549 > 100 µM | CAKI-1 > 100 µM | COLO 205 > 100 µM | HCC 2998 > 100 µM | HOP-92 > 100 µM | KM12 > 100 µM | LOX IMVI > 100 µM | NCI-H226 > 100 µM | SK-MEL-28 > 100 µM | SK-MEL-2 > 100 µM | SNB-19 > 100 µM | U-251 > 100 µM

CCCCCCCCCCCCCCCCCC(=O)NCCCNCCCNC(=O)CCCCCCCCCCCCCCCCC
inactive: A549 > 100 µM | CAKI-1 > 100 µM | COLO 205 > 100 µM | HCC 2998 > 100 µM | HOP-62 > 100 µM | HOP-92 > 100 µM | IGROV-1 > 100 µM | LOX IMVI > 100 µM | M14 > 100 µM | NCI-H226 > 100 µM | OVCAR-3 37.3 µM | SK-MEL-28 > 100 µM | SK-OV-3 > 100 µM | SNB-19 > 100 µM | U-251 > 100 µM

O=C1C=Cc2ncccc2C1=O
inactive: A549 30.8 µM | CAKI-1 21.1 µM | COLO 205 18 µM | HCC 2998 > 48.1 µM | HOP-62 > 54.8 µM | HOP-92 21.1 µM | IGROV-1 32.2 µM | KM12 33.7 µM | LOX IMVI 13.5 µM | M14 18.1 µM | NCI-H226 > 44.9 µM | OVCAR-3 23.9 µM | SK-MEL-28 24.4 µM | SK-MEL-2 18.5 µM | SK-OV-3 37.9 µM | SNB-19 > 78.3 µM | U-251 24.4 µM

COc1ccc2c3c(n(Cc4ccccc4)c(=O)c2c1)-c1cc(OC)c(OC)cc1C3C (configuration not stated)
inactive: A549 18.6 µM | CAKI-1 28.1 µM | COLO 205 41.6 µM | HCC 2998 36.6 µM | HOP-62 14.8 µM | HOP-92 14.4 µM | IGROV-1 37.6 µM | KM12 23.3 µM | LOX IMVI 14.3 µM | M14 44 µM | NCI-H226 17.9 µM | OVCAR-3 15 µM | SK-MEL-28 43.5 µM | SK-MEL-2 17 µM | SK-OV-3 18.8 µM | SNB-19 21.7 µM | U-251 5.69 µM

Nc1ccc2c(c1)Oc1c(F)c(F)cc3c(=O)c(C(=O)O)cn-2c13
inactive: A549 32.9 µM | CAKI-1 32.1 µM | COLO 205 45 µM | HCC 2998 > 100 µM | HOP-62 31.7 µM | HOP-92 25.1 µM | IGROV-1 38.6 µM | KM12 23.6 µM | M14 81.5 µM | OVCAR-3 22.1 µM | SK-MEL-28 40.3 µM | SK-MEL-2 80.2 µM | SK-OV-3 > 100 µM | SNB-19 35.2 µM | U-251 34.2 µM
